Test results taken from article PMC7065129, “Phospholipase D‐derived phosphatidic acid promotes root hair development under phosphorus deficiency by suppressing vacuolar degradation of PIN‐FORMED2” (The New Phytologist, 2019).

Target: T1, SNX1 (SORTING NEXIN1; AtSNX1) (Arabidopsis thaliana, UniProt Q9FG38)
T1 construct: full-length cDNA in pET51b, His-tagged (tag kept), E. coli Rosetta (DE3), Ni-NTA purified
T1 sequence (Q9FG38 1-402): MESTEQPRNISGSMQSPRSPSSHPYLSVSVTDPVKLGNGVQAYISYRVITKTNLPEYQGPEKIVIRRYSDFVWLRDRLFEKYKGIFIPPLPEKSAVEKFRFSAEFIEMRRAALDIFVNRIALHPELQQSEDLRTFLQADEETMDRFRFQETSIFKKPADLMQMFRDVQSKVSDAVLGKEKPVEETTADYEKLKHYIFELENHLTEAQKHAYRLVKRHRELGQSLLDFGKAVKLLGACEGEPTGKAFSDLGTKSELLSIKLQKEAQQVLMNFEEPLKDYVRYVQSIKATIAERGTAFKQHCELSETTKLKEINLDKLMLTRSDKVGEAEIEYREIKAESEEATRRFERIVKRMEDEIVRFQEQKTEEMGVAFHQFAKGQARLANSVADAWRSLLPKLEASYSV
Experiment: liposome co-sedimentation, immunoblot
Format: binding
Conditions: dioleoyl PC/dioleoyl PA liposomes, pH 7.5, 25 °C; PA (acyl chains not told) also tested by lipid-protein overlay

CCCCCCCC/C=C\CCCCCCCC(=O)OC[C@H](COP(=O)(O)O)OC(=O)CCCCCCC/C=C\CCCCCCCC [dioleoyl PA]
liposome co-sedimentation, immunoblot: results confirmed the specific SNX1‐PA binding (Fig. 4b)
